# Results from ChEMBL document CHEMBL4627257, “Targeting the DNA damage response (DDR) by natural compounds” (Bioorg Med Chem, 2020).
# Activity calls are given as the source filed them. The rule behind the calls is not given here.
# Columns and labels:
# [1] = tested on: SU.86.86; assay: Induction of DNA damage in human SU8686 cells assessed as increase in gammaH2AX phosphorylation at […] at cytotoxic IC50 incubated for 24 hrs by fluorometry method; format: functional
# [2] = tested on: SU.86.86; assay: Induction of DNA damage in human SU8686 cells assessed as increase in gammaH2AX phosphorylation at […] at cytotoxic IC50 in presence of 0.3 uM doxorubicin by fluorometry method; format: functional
# [3] = tested on: SU.86.86; assay: Induction of DNA damage in human SU8686 cells assessed as increase in gammaH2AX phosphorylation at […] at cytotoxic IC50 in presence of 5 uM cisplatin by fluorometry method; format: functional
# [4] = tested on: SU.86.86; assay: Induction of DNA damage in human SU8686 cells assessed as tail DNA formation at IC50 by alkaline Comet assay; format: functional, cell-based
# [5] = tested on: SU.86.86; assay: Induction of DNA damage in human SU8686 cells assessed as increase in gammaH2AX nuclear foci under basal condition at IC50 by fluorometry method; format: functional, cell-based
SMILES,Activity [2] [%],also measured
C=C1[C@@H](C)[C@H]2[C@H](Cc3ccccc3)NC(=O)[C@]23[C@H](OC(C)=O)/C=C\[C@@H](C)C[C@@H](C)C/C=C\[C@H]3[C@@H]1O,,Activity [1]: >=30%
C=C[C@@](C)(/C=C/c1ccc(O)cc1)CCC=C(C)C [BAKUCHIOL],>20,
Oc1c(Br)cc(Br)cc1Oc1ccc(Br)cc1Br,>20,Activity [3]: >20%
COc1cc(C[C@H]2COC(=O)[C@@H]2Cc2ccc(O)c(OC)c2)ccc1O [MATAIRESINOL],>20,
Cc1cc(O)c2c(c1)C(=O)c1c(c(O)cc(O)c1-c1c(O)cc(O)c3c1C(=O)c1cc(C)cc(O)c1C3=O)C2=O [SKYRIN],>20,
COc1cc(O)c2c(=O)oc3cc(O)cc(C)c3c2c1,>20,
COC(=O)/C=C/Oc1ccc(OC)cc1,>20,
C=C1CCC[C@H]2[C@](C)(CC3=C(O)C(=O)C=C(N[C@@H](CO)C(=O)O)C3=O)[C@@H](C)CC[C@]12C,,Activity [1]: >30%
[O-][n+]1ccc2c([nH]c3ccccc32)c1C1=C[C@@]2(O)CC/C=C\CCCCN3CC[C@@H]1[C@]1(CC/C=C\CCCCN[C@H]12)C3,>20,
CN1C(=O)NC(CCCNC(=O)c2cc(Br)c(Br)n2C)C1=O (configuration not stated) [MIDPACAMIDE],>20,
C/C=C1\NC(=O)[C@H](Cc2ccccc2)NC(=O)[C@@H](C(C)C)NC(=O)[C@H]([C@@H](C)CC)NC(=O)[C@H](NC(=O)[C@H](NC(=O)[C@H](CCCN)NC(=O)[C@H]2CCCN2C(=O)[C@H](NC(=O)[C@@H](NC(=O)[C@H](NC(=O)[C@H](NC(=O)CCCC(C)C)C(C)C)[C@@H](C)O)C(C)C)C(C)C)[C@@H](C)CC)C(C)OC(=O)[C@H](C(C)C)NC1=O (some centres not stated),,Activity [3]: >20%
CCOC(=O)c1cc(Br)c(Br)[nH]1,>20,
CC[C@H](C)[C@H]1C(=O)N[C@@H](Cc2ccc(OCC=C(C)C)cc2)C(=O)N(C)[C@@H](C)C(=O)O[C@@H](Cc2ccccc2)C(=O)N2CCC[C@H]2C(=O)N[C@H](C(=O)O)C(=O)N1C,>20,
COc1cc(O)c2c(c1)C(=O)c1cc(C)c(O)cc1C2=O [MACROSPORIN],>20,
COC1=CC(=O)[C@]2(C=C1OC)OC[C@H]1Oc3c4c(cc(O)c3C(=O)[C@H]12)OC(C)(C)C=C4,,Activity [1]: >30%
CC(C)=CCc1cc(C(=O)/C=C/c2ccc(O)cc2)c(O)cc1O [BROUSSOCHALCONE B],>20,Activity [1]: >30%
O=c1cc(CO)occ1O [KOJIC ACID],>20,
C=CC(C)(C)[C@@]12C[C@H]3C(=O)N/C(=C/c4c[nH]cn4)C(=O)N3[C@@H]1Nc1ccccc12 [ROQUEFORTINE C],>20,
CC[C@H](C)C1C(=O)O[C@H](C(C)C)C(=O)N(C)[C@@H]([C@@H](C)CC)C(=O)O[C@H](C(C)C)C(=O)N(C)[C@@H](C(C)C)C(=O)O[C@H](C(C)C)C(=O)N1C (some centres not stated),>20,
CC(C)=CCC/C(C)=C/CC/C(C)=C/CC/C(C)=C/CC/C(C)=C/CC/C(C)=C/Cc1cc(O)ccc1O,,Activity [4]: Active; Activity [5]: Active
CC1=CCC[C@H]2[C@](C)(Cc3cc(O)ccc3O)[C@@H](C)CC[C@]12C [AVAROL],>20,
O=c1[nH]c2ccccc2c(-c2ccccc2)c1O,>20,
C=C1CC[C@@H]2C(C)(C)CCC[C@@]2(C)[C@@H]1CC/C(C)=C/Cn1c[n+](C)c2ncnc(NO)c21,,Activity [3]: >20%
CC(C)=CCC[C@@H](C)c1ccc(C)c(O)c1 [XANTHORRIZOL],>20,
COC1=C(Br)[C@@H](O)[C@]2(C=C1Br)CC(C(=O)NC[C@@H](O)c1cc(Br)c(OC[C@@H](O)CNC(=O)C3=NO[C@]4(C=C(Br)C(OC)=C(Br)[C@@H]4O)C3)c(Br)c1)=NO2,>20,

SMILES,Activity [2] [%],also measured
CC[C@H](C)[C@H](NC(=O)[C@H](Cc1ccccc1)NC(=O)[C@H](CC(C)C)NC(=O)[C@@H]1CCCN1C(=O)/C1=C/N[C@@H](C(C)C)C(=O)N2CCC[C@H]2C(=O)N[C@@H](C(C)C)C(=O)N[C@@H](Cc2ccccc2)C(=O)N2CCC[C@H]2C(=O)N1)C(N)=O,,Activity [1]: >30%
O=C1c2cccc(O)c2C(=O)c2c(O)cc(CO)cc21 [ALOE-EMODIN],>20,
O=C1C[C@@H](c2ccccc2)Oc2cc(O)cc(O)c21 [PINOCEMBRIN],,Activity [1]: >30%
O=C1CCCN2[C@@H](CC1)C[C@]13CN4CCCC/C=C\CC[C@](O)(C=C(c5nccc6c5[nH]c5c(O)cccc56)[C@@H]1CC4)[C@H]23,>20,Activity [3]: >20%
C[C@H]1CCC/C=C\C(=O)Cc2cc(O)cc(O)c2C(=O)O1,,Activity [1]: >30%
COC1=C(Br)[C@H](O)[C@@]2(C=C1Br)CC(C(=O)NCCCCNC(=O)C1=NO[C@]3(C=C(Br)C(OC)=C(Br)[C@@H]3O)C1)=NO2 [AEROTHIONIN],>20,
CC(C)=CCc1cc(-c2coc3cc(O)ccc3c2=O)ccc1O [NEOBAVAISOFLAVONE],>20,Activity [3]: >20%
COC1=C(Br)[C@H](O)[C@](O)(CC#N)C=C1Br,>20,
C/C=C(\C)[C@H]1[C@@H](/C=C/C=C(\C)[C@@H](O)[C@@H](C)CO)[C@@H]2C[C@@H](OC(=O)Cc3ccccc3)[C@](C)(O)C[C@H]2[C@@H]2O[C@@]21C,>20,Activity [4]: Active; Activity [5]: Active
Cc1cc(O)cc2c1Oc1cc(O)cc(C)c1C(=O)O2,>20,Activity [3]: >20%
O=C1C[C@H](O)[C@H]2c3ccc(O)c4c3[C@H](c3ccc(O)c1c32)[C@@H](O)CC4=O,,Activity [3]: >20%
CCCCCC(N)=O,>20,Activity [1]: >30%
Oc1cccc2c1[nH]c1c(C3=C[C@@]4(O)CC/C=C\CCCCN5CC[C@@H]3[C@]3(C[C@@H]6/C=C\CCCCN6[C@H]34)C5)nccc12,>20,Activity [3]: >20%
CCCc1cc(OC)cc(O)c1C(=O)Oc1c(OC)cc(CCC)c(C(=O)O)c1O,,Activity [3]: >20%
CC1=C(CC/C(C)=C/CC/C(C)=C/CCC2=CC(=O)OC2O)C(C)(C)CCC1 (configuration not stated) [LUFFARIELLOLIDE],>20,Activity [3]: >20%
CCCCCc1cc(OC)c(OC(=O)c2c(O)cc(OC)cc2CCC)c(O)c1C(=O)O,>20,
COC(C)CCOC(=O)c1cc(O)c(O)c(O)c1 (configuration not stated),,Activity [1]: >30%
COc1cc(O)c2c(c1)C(=O)C1=C(C2=O)[C@H](O)[C@@H](O)[C@@](C)(O)[C@@H]1O [ALTERSOLANOL A],>20,Activity [3]: >20%
Cc1cc(O)cc2c1Oc1cc(O)c(O)c(C)c1C(=O)O2,,Activity [1]: >30%
CC1=CCC[C@H]2[C@](C)(CC3=CC(=O)C=CC3=O)[C@@H](C)CC[C@]12C [AVARONE],>20,Activity [3]: >20%
CC(=O)c1c(O)cc(O)cc1C[C@@H]1Cc2cc(O)cc(O)c2C(=O)O1,,Activity [1]: >30%
COc1ccc(CC#N)c(O)c1,>20,
CCCCCC[C@H](C)/C=C(C)/C=C/C(=O)N[C@@H]1C[C@@]2(O[C@@H]1O)[C@@H]1O[C@@H]1C(=O)[C@@H]1O[C@@H]12,>20,
COC(=O)c1cc(O)cc(OC)c1C(=O)c1c(O)c(Cl)c(C)c(Cl)c1O [DIHYDROGEODIN],>20,
